In patent publication US20090298820A1, “3-SUBSTITUTED-1H-PYRROLO[2,3-B]PYRIDINE AND 3-SUBSTITUTED-1H-PYRROLO[3,2-B]PYRIDINE COMPOUNDS, THEIR USE AS MTOR KINASE AND PI3 KINASE INHIBITORS, AND THEIR SYNTHESES” (Wyeth, priority 2008, published 2009):

Tests used:
Format in all cases: biochemical
mTOR = mTOR (Homo sapiens, UniProt P42345); test: mTOR enzyme assay (DELFIA format, His6-S6K substrate); conditions: read-out: mTOR Kinase Median IC50
PI3Kα = PI3Kα (Homo sapiens, UniProt P42336); test: PI3K-alpha fluorescence polarization assay; conditions: read-out: PI3Kα Median IC50
PI3Kγ = PI3Kγ (Homo sapiens, UniProt P48736); test: PI3K-gamma fluorescence polarization assay; conditions: read-out: PI3Kγ Median IC50
Chain of PI3Kγ (P48736 whole entry, species assumed): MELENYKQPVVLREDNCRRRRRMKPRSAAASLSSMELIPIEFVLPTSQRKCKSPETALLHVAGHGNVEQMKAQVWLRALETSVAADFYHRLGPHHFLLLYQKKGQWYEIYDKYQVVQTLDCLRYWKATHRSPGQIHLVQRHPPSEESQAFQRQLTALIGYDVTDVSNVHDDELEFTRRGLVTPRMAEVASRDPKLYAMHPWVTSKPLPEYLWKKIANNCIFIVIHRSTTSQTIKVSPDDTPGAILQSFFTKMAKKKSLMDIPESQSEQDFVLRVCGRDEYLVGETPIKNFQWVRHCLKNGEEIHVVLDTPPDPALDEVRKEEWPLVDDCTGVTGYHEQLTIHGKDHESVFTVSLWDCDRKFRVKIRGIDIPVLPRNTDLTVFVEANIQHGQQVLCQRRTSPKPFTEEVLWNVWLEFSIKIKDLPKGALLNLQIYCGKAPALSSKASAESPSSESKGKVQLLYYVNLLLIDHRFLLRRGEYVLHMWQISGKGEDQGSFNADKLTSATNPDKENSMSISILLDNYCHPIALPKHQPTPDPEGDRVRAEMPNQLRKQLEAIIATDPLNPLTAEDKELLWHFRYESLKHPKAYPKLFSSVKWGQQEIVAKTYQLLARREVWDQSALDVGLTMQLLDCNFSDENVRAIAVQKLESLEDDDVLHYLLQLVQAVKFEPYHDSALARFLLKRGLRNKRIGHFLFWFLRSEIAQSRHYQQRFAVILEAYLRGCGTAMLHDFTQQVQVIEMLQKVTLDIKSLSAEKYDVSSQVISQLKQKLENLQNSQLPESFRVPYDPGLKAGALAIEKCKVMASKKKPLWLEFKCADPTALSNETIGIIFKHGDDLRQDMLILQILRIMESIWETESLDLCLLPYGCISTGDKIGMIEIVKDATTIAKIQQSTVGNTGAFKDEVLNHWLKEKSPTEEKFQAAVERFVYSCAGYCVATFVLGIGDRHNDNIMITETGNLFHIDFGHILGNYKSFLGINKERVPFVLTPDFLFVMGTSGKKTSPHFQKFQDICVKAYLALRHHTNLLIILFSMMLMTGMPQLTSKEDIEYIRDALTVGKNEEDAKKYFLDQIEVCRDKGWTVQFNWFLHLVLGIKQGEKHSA

Chain of PI3Kα (P42336 whole entry, species assumed): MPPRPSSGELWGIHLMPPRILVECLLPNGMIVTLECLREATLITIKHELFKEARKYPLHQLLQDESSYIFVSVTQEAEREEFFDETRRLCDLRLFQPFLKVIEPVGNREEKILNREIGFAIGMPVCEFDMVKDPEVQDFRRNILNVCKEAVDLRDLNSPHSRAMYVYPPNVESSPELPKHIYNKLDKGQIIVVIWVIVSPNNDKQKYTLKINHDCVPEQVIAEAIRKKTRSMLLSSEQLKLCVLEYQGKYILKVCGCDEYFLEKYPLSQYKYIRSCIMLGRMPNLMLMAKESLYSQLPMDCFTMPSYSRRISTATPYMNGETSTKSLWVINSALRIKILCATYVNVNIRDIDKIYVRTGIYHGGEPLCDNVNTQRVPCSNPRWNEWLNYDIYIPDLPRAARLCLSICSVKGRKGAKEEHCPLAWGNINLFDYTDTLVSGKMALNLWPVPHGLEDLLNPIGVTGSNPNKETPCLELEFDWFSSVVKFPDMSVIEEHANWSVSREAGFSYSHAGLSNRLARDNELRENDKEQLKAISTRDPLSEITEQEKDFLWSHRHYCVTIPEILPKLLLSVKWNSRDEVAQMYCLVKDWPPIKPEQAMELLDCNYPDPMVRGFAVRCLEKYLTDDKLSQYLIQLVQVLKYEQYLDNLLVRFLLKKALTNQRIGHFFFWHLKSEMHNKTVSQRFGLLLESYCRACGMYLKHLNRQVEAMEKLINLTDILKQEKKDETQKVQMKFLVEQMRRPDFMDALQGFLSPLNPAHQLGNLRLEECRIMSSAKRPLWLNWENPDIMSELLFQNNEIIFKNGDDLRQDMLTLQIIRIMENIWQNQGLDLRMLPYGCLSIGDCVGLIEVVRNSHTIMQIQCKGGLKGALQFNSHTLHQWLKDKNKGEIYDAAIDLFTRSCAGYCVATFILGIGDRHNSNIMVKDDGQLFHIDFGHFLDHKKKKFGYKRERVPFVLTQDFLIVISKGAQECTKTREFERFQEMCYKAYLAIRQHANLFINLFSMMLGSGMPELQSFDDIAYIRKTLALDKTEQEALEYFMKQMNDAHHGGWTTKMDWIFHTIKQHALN
Chain of PI3Kα (P27986 whole entry partner, species assumed): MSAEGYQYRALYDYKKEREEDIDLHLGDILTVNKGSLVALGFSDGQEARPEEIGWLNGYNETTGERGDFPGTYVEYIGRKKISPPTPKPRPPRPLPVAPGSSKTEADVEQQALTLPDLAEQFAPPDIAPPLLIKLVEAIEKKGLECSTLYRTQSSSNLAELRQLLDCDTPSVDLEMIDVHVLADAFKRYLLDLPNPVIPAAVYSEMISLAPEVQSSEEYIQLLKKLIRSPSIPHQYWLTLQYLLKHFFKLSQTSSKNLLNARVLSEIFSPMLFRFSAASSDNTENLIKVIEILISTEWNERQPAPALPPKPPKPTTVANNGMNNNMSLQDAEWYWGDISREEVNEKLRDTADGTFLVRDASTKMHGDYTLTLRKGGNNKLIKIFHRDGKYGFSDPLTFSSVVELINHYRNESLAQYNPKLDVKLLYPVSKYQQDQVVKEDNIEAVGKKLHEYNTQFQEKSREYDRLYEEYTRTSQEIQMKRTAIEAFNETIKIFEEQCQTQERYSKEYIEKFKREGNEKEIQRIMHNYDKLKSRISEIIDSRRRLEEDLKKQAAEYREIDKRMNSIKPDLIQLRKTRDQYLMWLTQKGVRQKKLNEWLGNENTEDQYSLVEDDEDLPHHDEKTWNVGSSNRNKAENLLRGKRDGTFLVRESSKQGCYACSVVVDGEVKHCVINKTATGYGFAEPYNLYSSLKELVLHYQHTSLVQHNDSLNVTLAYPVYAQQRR

Row | SMILES | IC50 (mTOR) [nM] | IC50 (PI3Kα) [nM] | IC50 (PI3Kγ) [nM]
1 | COc1ccc(-c2ccnc3c2c(/C=C2\Oc4cc(O)cc(O)c4C2=O)cn3C)cc1S(=O)(=O)N1CCOCC1 [Compound 88, (2Z)-4,6-dihydroxy-2-({4-[4-methoxy-3-(morpholin-4-ylsulfonyl)phenyl]-1-methyl-1H-pyrrolo[2,3-b]pyridin-3-yl}methylene)-1-benzofuran-3(2H)-one] | 0.2 | 8 | 27
2 | CN1CCN(c2ccc(-c3ccnc4c3c(/C=C3\Oc5cccc(O)c5C3=O)cn4C)cc2)CC1 [Compound 57, (2Z)-4-hydroxy-2-({1-methyl-4-[4-(4-methylpiperazin-1-yl)phenyl]-1H-pyrrolo[2,3-b]pyridin-3-yl}methylene)-1-benzofuran-3(2H)-one] | 11.4 | 147 | 148
3 | Cn1cc(/C=C2\Oc3cc(O)cc(O)c3C2=O)c2c(N3CCC(O)CC3)ccnc21 [Compound 50, (2Z)-4,6-dihydroxy-2-{[4-(4-hydroxypiperidin-1-yl)-1-methyl-1H-pyrrolo[2,3-b]pyridin-3-yl]methylene}-1-benzofuran-3(2H)-one] | 0.2 | 23 | 177
4 | Cn1cc(/C=C2\Oc3cccc(O)c3C2=O)c2c(-c3ccc(C(=O)N4CCCC4)cc3)ccnc21 [Compound 91, (2Z)-4-hydroxy-2-({1-methyl-4-[4-(pyrrolidin-1-ylcarbonyl)phenyl]-1H-pyrrolo[2,3-b]pyridin-3-yl}methylene)-1-benzofuran-3(2H)-one] | 0.7 | 36 | 74
5 | Cn1cc(/C=C2\Oc3cccc(O)c3C2=O)c2c(-c3ccc(N4CCNCC4)cc3)ccnc21 [Compound 135, (2Z)-4-hydroxy-2-{[1-methyl-4-(4-piperazin-1-ylphenyl)-1H-pyrrolo[2,3-b]pyridin-3-yl]methylene}-1-benzofuran-3(2H)-one] | 10 | 156 | 1420
6 | Cn1cc(/C=C2\Oc3cc(O)cc(O)c3C2=O)c2c(-c3cccc(S(=O)(=O)N4CCCCC4)c3)ccnc21 [Compound 80, (2Z)-4,6-dihydroxy-2-({1-methyl-4-[3-(piperidin-1-ylsulfonyl)phenyl]-1H-pyrrolo[2,3-b]pyridin-3-yl}methylene)-1-benzofuran-3(2H)-one] | 1.8 | 23 | 69
7 | Cn1cc(/C=C2\Oc3cc(O)cc(O)c3C2=O)c2c(-c3ccccc3)ccnc21 [Compound 24, (2Z)-4,6-dihydroxy-2-[(1-methyl-4-phenyl-1H-pyrrolo[2,3-b]pyridin-3-yl)methylene]-1-benzofuran-3(2H)-one] | 0.5 | 95 | 93
8 | Cn1cc(/C=C2\Oc3cccc(O)c3C2=O)c2c(-c3ccc(N4CCCCC4)nc3)ccnc21 [Compound 70, (2Z)-4-hydroxy-2-{[1-methyl-4-(6-piperidin-1-ylpyridin-3-yl)-1H-pyrrolo[2,3-b]pyridin-3-yl]methylene}-1-benzofuran-3(2H)-one] | 115 | 271 | 242
9 | COc1ccc(-c2ccnc3c2c(/C=C2\Oc4cccc(O)c4C2=O)cn3C)cc1S(=O)(=O)N1CCCC1 [Compound 86, (2Z)-4-hydroxy-2-({4-[4-methoxy-3-(pyrrolidin-1-ylsulfonyl)phenyl]-1-methyl-1H-pyrrolo[2,3-b]pyridin-3-yl}methylene)-1-benzofuran-3(2H)-one] | 3.4 | 77 | 600
10 | Cn1cc(/C=C2\Oc3cccc(O)c3C2=O)c2c(-c3ccc(C(=O)Nc4ccc(F)cc4)cc3)ccnc21 [Compound 83, N-(4-fluorophenyl)-4-{3-[(Z)-(4-hydroxy-3-oxo-1-benzofuran-2(3H)-ylidene)methyl]-1-methyl-1H-pyrrolo[2,3-b]pyridin-4-yl}benzamide] | 9.5 | 124 | 951
11 | Cn1cc(/C=C2\Oc3cc(O)cc(O)c3C2=O)c2c(-c3cccc(Cl)c3)ccnc21 [Compound 13, (2Z)-2-{[4-(3-chlorophenyl)-1-methyl-1H-pyrrolo[2,3-b]pyridin-3-yl]methylene}-4,6-dihydroxy-1-benzofuran-3(2H)-one] | 1.2 | 116 | 79
12 | Cn1cc(/C=C2\Oc3cccc(O)c3C2=O)c2c(-c3ccc(N4CCCCC4)cc3)ccnc21 [Compound 142, (2Z)-4-hydroxy-2-{[1-methyl-4-(4-piperidin-1-ylphenyl)-1H-pyrrolo[2,3-b]pyridin-3-yl]methylidene}-1-benzofuran-3(2H)-one] | 8 | 1580 | > 10000

Other lines, results leading:

Row | IC50 (mTOR) [nM] | IC50 (PI3Kα) [nM] | IC50 (PI3Kγ) [nM] | SMILES
13 | 83 | 632 | 484 | CN1CCN(c2ccnc3c2c(/C=C2\Oc4ccc(NC(=O)Nc5cccnc5)cc4C2=O)cn3C)CC1 [Compound 184, 1-[(2Z)-2-{[1-methyl-4-(4-methylpiperazin-1-yl)-1H-pyrrolo[2,3-b]pyridin-3-yl]methylidene}-3-oxo-2,3-dihydro-1-benzofuran-5-yl]-3-pyridin-3-ylurea]
14 | 1.4 | 29 | 54 | Cn1cc(/C=C2\Oc3cccc(O)c3C2=O)c2c(-c3ccc(C(=O)N4CCC(O)C4)cc3)ccnc21 (stereo not drawn) [Compound 245, (2Z)-4-hydroxy-2-[(4-{4-[(3-hydroxypyrrolidin-1-yl)carbonyl]phenyl}-1-methyl-1H-pyrrolo[2,3-b]pyridin-3-yl)methylene]-1-benzofuran-3(2H)-one]
15 | 105 | 736 | 3540 | CN(C)C(=O)C1CCN(c2ccnc3c2c(/C=C2\Oc4ccc(NC(=O)NC5CCN(C(=O)C(F)(F)F)CC5)cc4C2=O)cn3C)CC1 [Compound 300, N,N-dimethyl-1-(1-methyl-3-{(Z)-[3-oxo-5-({[1-(trifluoroacetyl)piperidin-4-yl]carbamoyl}amino)-1-benzofuran-2(3H)-ylidene]methyl}-1H-pyrrolo[2,3-b]pyridin-4-yl)piperidine-4-carboxamide]
16 | 3350 | 5700 | > 10000 | Cn1cc(/C=C2\Oc3ccc(NC(=O)Nc4ccc(N5CCOCC5)cc4)cc3C2=O)c2c(N3CC4CCC(C3)O4)ccnc21 [Compound 273, 1-[(2Z)-2-{[1-methyl-4-(8-oxa-3-azabicyclo[3.2.1]oct-3-yl)-1H-pyrrolo[2,3-b]pyridin-3-yl]methylidene}-3-oxo-2,3-dihydro-1-benzofuran-5-yl]-3-(4-morpholin-4-ylphenyl)urea]
17 | 8.4 | 744 | 1920 | COCCNC(=O)C1CCN(c2ccnc3c2c(/C=C2\Oc4ccc(NC(=O)Nc5cccnc5)cc4C2=O)cn3C)CC1 [Compound 260, N-(2-methoxyethyl)-1-{1-methyl-3-[(Z)-{3-oxo-5-[(pyridin-3-ylcarbamoyl)amino]-1-benzofuran-2(3H)-ylidene}methyl]-1H-pyrrolo[2,3-b]pyridin-4-yl}piperidine-4-carboxamide]
18 | 170 | 415 | 2750 | CN1CCN(NC(=O)Nc2ccc3c(c2)C(=O)/C(=C/c2cn(C)c4nccc(N5CCC(C(=O)N(C)C)CC5)c24)O3)CC1 [Compound 228, N,N-dimethyl-1-(1-methyl-3-{(Z)-[5-{[(4-methylpiperazin-1-yl)carbamoyl]amino}-3-oxo-1-benzofuran-2(3H)-ylidene]methyl}-1H-pyrrolo[2,3-b]pyridin-4-yl)piperidine-4-carboxamide]
19 | 3.5 | 26 | 80 | Cn1cc(/C=C2\Oc3cccc(O)c3C2=O)c2c(-c3ccc(S(=O)(=O)N4CCCC4)cc3)ccnc21 [Compound 190, (2Z)-4-hydroxy-2-({1-methyl-4-[4-(pyrrolidin-1-ylsulfonyl)phenyl]-1H-pyrrolo[2,3-b]pyridin-3-yl}methylidene)-1-benzofuran-3(2H)-one]
20 | 27.5 | 2080 | > 10000 | Cn1cc(/C=C2\Oc3ccc(NC(=O)Nc4cccnc4)cc3C2=O)c2c(C3=CCOCC3)ccnc21 [Compound 294, 1-[(2Z)-2-{[4-(3,6-dihydro-2H-pyran-4-yl)-1-methyl-1H-pyrrolo[2,3-b]pyridin-3-yl]methylidene}-3-oxo-2,3-dihydro-1-benzofuran-5-yl]-3-pyridin-3-ylurea]
21 | 10.2 | > 10000 | > 10000 | Cn1cc(C=C2Oc3ccc(NC(=O)Nc4cccnc4)cc3C2=O)c2c(N3CCC(C(=O)NC4CCOCC4)CC3)ccnc21 [Compound 214, 1-[1-methyl-3-({3-oxo-5-[(pyridin-3-ylcarbamoyl)amino]-1-benzofuran-2(3H)-ylidene}methyl)-1H-pyrrolo[2,3-b]pyridin-4-yl]-N-(tetrahydro-2H-pyran-4-yl)piperidine-4-carboxamide]
22 | 8.2 | 909 | 661 | Cn1cc(/C=C2\Oc3ccc(NC(=O)Nc4cccnc4)cc3C2=O)c2c(N3CCC(C(=O)N4CCCC4)CC3)ccnc21 [Compound 253, 1-[(2Z)-2-({1-methyl-4-[4-(pyrrolidin-1-ylcarbonyl)piperidin-1-yl]-1H-pyrrolo[2,3-b]pyridin-3-yl}methylene)-3-oxo-2,3-dihydro-1-benzofuran-5-yl]-3-pyridin-3-ylurea]
23 | 97 | 4010 | > 10000 | CN(C)C(=O)C1CCN(c2ccnc3c2c(/C=C2\Oc4ccc(NC(=O)Nc5ccc(N6CCOCC6)nc5)cc4C2=O)cn3C)CC1 [Compound 217, N,N-dimethyl-1-(1-methyl-3-{(Z)-[5-{[(6-morpholin-4-ylpyridin-3-yl)carbamoyl]amino}-3-oxo-1-benzofuran-2(3H)-ylidene]methyl}-1H-pyrrolo[2,3-b]pyridin-4-yl)piperidine-4-carboxamide]
24 | 66 | 2690 | 2360 | CCn1cc(/C=C2\Oc3ccc(NC(=O)Nc4cccnc4)cc3C2=O)c2c(-c3ccc(C(=O)N4CCN(CCO)CC4)cc3)ccnc21 [Compound 177, 1-[(2Z)-2-{[1-ethyl-4-(4-{[4-(2-hydroxyethyl)piperazin-1-yl]carbonyl}phenyl)-1H-pyrrolo[2,3-b]pyridin-3-yl]methylidene}-3-oxo-2,3-dihydro-1-benzofuran-5-yl]-3-pyridin-3-ylurea]
